A short description of this series: Absorption enhancing effect of co-administered diltiazem hydrochloride on plasma drug concentration after oral administration (Experiment 1). It counts as in vivo. The settings on record: male beagle dogs fasted for 24 hours. The protocol:
Male beagle dogs (body weight: 12 to 14 kg; one group: 3 to 8 beagle dogs) fasted for 24 hours were used in each groups. A drug having an absolute bioavailability of not more than 20 % and diltiazem hydrochloride were administered orally to the beagle dogs. After one week intervals, the drug only was administered orally to the same beagle dogs. The plasma drug concentration was examined at intervals by TCL densito metry if the drug was timepidium bromide; or by high-peformance liquid chromatography if the drug was tipepidine hibenzate or carbazochrome sodium sulfate. Based on the results obtained above, the absorption enhancing effect of diltiazem hydrochloride was calculated by the following formula; [formula]

Regarding `CN1C2=CC(=O)C(=NNC(N)=O)C=C2CC1S(=O)(=O)O` (stereo not drawn) [Carbazochrome sodium sulfonate, 1-methyl-5-semicarbazono-6-oxo-2,3,5,6-tetrahydroindole-2-sulfonic acid], the Absorption enhancing effect (drug 100 mg with diltiazem hydrochloride 60 mg versus drug only, plasma drug concentration by high-performance liquid chromatography) was found to be 1.9.

As to `COC1CC(=C(c2cccs2)c2cccs2)C[N+](C)(C)C1` (stereo not drawn) [Timepidium bromide, 1,1-dimethyl-5-methoxy-3-(dithien-2-yl-methylene)-piperidinium halide], under “drug 300 mg with diltiazem hydrochloride 30 mg versus drug only, plasma drug concentration by TLC densitometry”, the Absorption enhancing effect is recorded as 2.3.

`CN1CCCC(=C(c2cccs2)c2cccs2)C1` [Tipepidine hibenzate, 3-(di-2-thienylmethylene)-1-methylpiperidine]: the Absorption enhancing effect (drug 50 mg with diltiazem hydrochloride 60 mg versus drug only, plasma drug concentration by high-performance liquid chromatography) is recorded as 2.1.

(Values after EP0106335B1, “Pharmaceutical composition and a method for enhancing the absorption of a pharmaceutically active compound” (Tanabe Seiyaku Co., Ltd., priority 1982, dated 1984).)
